From PMC4126848 (Epilepsia, 2014)
Values joined by “and” are separate entries in the source; they are usually repeats but may differ in a detail not shown here. Equal entries are not always repeated. Where two headings read alike, the source gives them in different places.

Tests used:
[1] = mouse, in vivo
Scn2a^Q54 mice [2] = experiment: Anticonvulsant activity: behavioral seizure frequency in Scn2a^Q54 mice; assay type: in vivo, mouse; details: for reduction in seizure frequency: Scn2a^Q54 mice
[3] = Plasma and brain concentrations and pharmacokinetics in mice; details: for concentration at 30 min: male, Scn2a^Q54, mouse, intraperitoneal, 40 mg/kg
[4] = system: hippocampal pyramidal neurons isolated from Scn2a^Q54 mice; assay type: cell-based, mouse; details: 1 µM; membrane potential clamped to −80 mV
Scn2a^Q54 mice [5] = experiment: Tolerability observations in mice; assay type: in vivo, mouse; details: phenytoin 30 mg/kg i.p.; GS967 in chow
[6] = system: cardiac ion channels and several other molecular targets (more than 600 studied targets); details: 1 µM; cited from earlier work
[7] = system: hippocampal pyramidal neurons isolated from Scn2a^Q54 mice; assay type: cell-based, mouse; details: 1 µM
Scn2a^Q54 mice [8] = experiment: Survival analysis of Scn2a^Q54 mice; assay type: in vivo, mouse; details: GS967 chow 1.5 mg/kg/d from postnatal day 21; control 20%
Scn2a^Q54 mice [9] = experiment: Cresyl Violet staining for hilar neuron loss in the dentate gyrus; assay type: in vivo, mouse; details: GS967 1.5 mg/kg/d from P21-P60; female mice
C57BL/6J male mice = experiment: Maximal electroshock-induced seizures; assay type: in vivo, mouse; details: oral gavage two hours prior to testing; probit analysis

Row | SMILES | brain penetration [1] | reduction in seizure frequency (Scn2a^Q54 mice [2]; ranolazine 40 mg/kg i.p.) | concentration at 30 min ([3]; plasma) [µM] | concentration at 30 min ([3]; whole brain) [µM] | half-life ([3]; mouse, plasma) [min] | reduction of spontaneous action potential firing frequency [4] [%] | sedation (Scn2a^Q54 mice [5]) | cross reactivity with cardiac ion channels and other molecular targets [6] | reduction in seizure frequency (Scn2a^Q54 mice [2]; GS967 0.375 mg/kg/d orally in chow) [%] | reduction in seizure frequency (Scn2a^Q54 mice [2]; GS967 1.5 mg/kg/d orally in chow, two days of treatment) | % Change in Seizure Frequency (Scn2a^Q54 mice [2]; GS967 1.5 mg/kg/day orally in chow, male Scn2a^Q54 mice) [%] | persistent current as % of peak current amplitude ([7]; control 1.2 ± 0.4%) [%] | peak current density ([7]; not significantly different from control) [pA/pF] | mice alive at 12 weeks (Scn2a^Q54 mice [8]) [%] | hilar neuron loss (Cresyl Violet, qualitative) (Scn2a^Q54 mice [9]) | [Plasma] ([3]; GS967 1.5 mg/kg/day orally in chow, immediately after post-treatment period) [µM] | brain penetration ([3]; mice) | rate of elimination ([3]; mouse, in vivo) | ED50 for protection against MES-induced tonic hindlimb extension (C57BL/6J male mice) [mg/kg]
1 | COc1ccccc1OCC(O)CN1CCN(CC(=O)Nc2c(C)cccc2C)CC1 (stereo not drawn) [Ranolazine, reference compound] | low brain penetration | ~ 50% and 48% | 19.3 ± 0.8 | 4.9 ± 0.1 | ~15 |  |  |  |  |  |  |  |  |  |  |  |  |  | 
2 | O=C1NC(=O)C(c2ccccc2)(c2ccccc2)N1 [Phenytoin, reference compound] |  |  |  |  |  | 36.7 ± 10.1 | exhibited sedation characterized by lack of ambulation |  |  |  |  |  |  |  |  |  |  |  | 
3 | FC(F)(F)Oc1ccc(-c2ccc3nnc(C(F)(F)F)n3c2)cc1 [GS967] |  |  |  |  |  | 98.8 ± 0.1 | no sedation was observed | no cross reactivity | 50 | greater than 90% | −92 ± 4 | 0.1 ± 0.1 | 172.3 ± 46.2 | 90 | no overt hilar neuron loss | 0.6 ± 0.1 | effectively cross the blood-brain barrier | slower rate of elimination than ranolazine | 0.1
